Results on 8 molecules are retold here after patent publication US20250163074A1, “CDK Inhibitors And Their Use As Pharmaceuticals” (Prelude Therapeutics Incorporated, priority 2020, published 2025).

In series [1] the target is CDK4/Cyclin D1 (Homo sapiens (Human), UniProt P11802). Put plainly: CDK4/CyclinD1 enzymatic activity assay (TR-FRET). As to conditions: CDK4/CyclinD1 1 nM, ATP 2 mM, read-out: CDK4_D1 IC50. In kind it is biochemical. A digest of the protocol: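 Insect-cell CDK4/Cyclin D1 (1 nM) with ULight-4E-BP1 (100 nM) and 2 mM ATP in HEPES pH 7.4 buffer, preincubated 20 min with compound (9-dose, 3-fold dilutions); 10 mM MgCl2 started the reaction, run 60 min at 37 °C. EDTA/Eu-anti-phospho-4E-BP1 TR-FRET detection; IC50 from 4-parameter Hill fit.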

Series [2] deals with CDK6/Cyclin D1 (Homo sapiens (Human), UniProt Q00534). Description: CDK6/CyclinD1 enzymatic activity assay (TR-FRET). The format is biochemical. Particulars: CDK6/Cyclin D1 1 nM, ATP 250 μM, read-out: CDK6_D1 IC50. The method in brief: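 Insect-cell-expressed CDK6/Cyclin D1 (1 nM) phosphorylated ULight-4E-BP1 (100 nM) with 250 μM ATP in HEPES pH 7.4 buffer. After 20 min compound preincubation, reactions were started with 10 mM MgCl2 and run 60 min at 37 °C. EDTA-quenched samples were read by TR-FRET with Eu-anti-P-4E-BP1; IC50 from 9-dose 4-parameter fits.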
For orientation: In TR-FRET formats the signal depends on donor and acceptor labels being close together.

Series [3] deals with MCF7 adenocarcinoma cell line. Put plainly: Cell proliferation studies in MCF7 cells (ATP-Lite). The format is cell-based. Particulars: Homo sapiens, 240 h, 10 days incubation, cell viability by ATP-Lite luminescence, read-out: PROLIFERATION_CTG_MCF7 IC50. A digest of the protocol:
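MCF7 cells, seeded at 100 or 200 cells/well, were exposed for 10 days at 37 °C to a 9-point, 3-fold dilution series in quadruplicate, with media exchange and re-dosing on day 5. Viability was read by ATP-Lite luminescence, normalized to background and DMSO, and fitted for IC50.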

Series [4] can be described thus: Brain-to-plasma ratio determination in Sprague-Dawley rats. The format is in vivo. As to conditions: rat, male Sprague-Dawley rats, four hours after a single oral dose (3, 4, 5, or 10 mg/kg). Here is the method: Example B: Brain-to-Plasma Ratio Determination in Sprague-Dawley Rats
The brain-to-plasma ratio (Kp) was determined in male Sprague-Dawley rats (7-9 weeks old) four hours after a single oral dose. Rats were acclimated and given free access to standard rodent chow and water throughout the entire study. Test articles were formulated as a solution at 0.3, 0.4, 0.5, or 1.0 mg/mL in a vehicle comprised of 10:15:75 (v:v:v) dimethylacetamide (DMA):Solutol HS15:water and delivered orally at a rate of 10 mL/kg to three rats to achieve final doses of 3, 4, 5, or 10 mg/kg, respectively. At 4 hours post-dose, blood samples were collected via jugular vein cannula into tubes containing K2EDTA as the anticoagulant and stored on ice. Blood samples were then centrifuged at 4° C. at 6000 rpm for 5 minutes, and the resulting plasma was placed into tubes and stored frozen at −80° C. until analysis. Whole brain samples were also collected at 4 hours post-dose. The weight of each brain was measured and recorded, and samples were immediately stored on dry ice. Brain samples were then transferred to storage at −80° C. until analysis.
Prior to analysis, brain samples were combined with water (4 mL/1 gram of brain) and homogenized. Prior to injection, plasma and brain homogenate samples and standards were prepared for analysis by precipitation with acetonitrile or 1:1 (v:v) methanol:acetonitrile. Samples were then thoroughly mixed, centrifuged at 4000 rpm for 15 minutes, and the resulting supernatant was transferred for analysis. Test article concentrations in plasma and brain homogenate were then determined by LC-MS/MS and quantified against calibration standards prepared to known concentrations in matched blank (analyte-free) biological matrix. The Kp was then determined by dividing the dilution-corrected brain concentration by the plasma concentration from each rat. A brain density of 1 gram/mL was assumed for all calculations.

CDK4/Cyclin D1, sequence (P11802 whole entry): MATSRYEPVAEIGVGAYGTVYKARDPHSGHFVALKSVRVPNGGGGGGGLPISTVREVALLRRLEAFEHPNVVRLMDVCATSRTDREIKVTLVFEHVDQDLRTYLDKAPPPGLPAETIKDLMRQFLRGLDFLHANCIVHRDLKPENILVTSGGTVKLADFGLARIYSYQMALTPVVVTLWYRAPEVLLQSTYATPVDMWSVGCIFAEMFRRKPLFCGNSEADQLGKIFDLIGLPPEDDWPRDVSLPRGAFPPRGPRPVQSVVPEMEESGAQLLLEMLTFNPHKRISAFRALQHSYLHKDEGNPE
CDK4/Cyclin D1, sequence (P24385 whole entry partner): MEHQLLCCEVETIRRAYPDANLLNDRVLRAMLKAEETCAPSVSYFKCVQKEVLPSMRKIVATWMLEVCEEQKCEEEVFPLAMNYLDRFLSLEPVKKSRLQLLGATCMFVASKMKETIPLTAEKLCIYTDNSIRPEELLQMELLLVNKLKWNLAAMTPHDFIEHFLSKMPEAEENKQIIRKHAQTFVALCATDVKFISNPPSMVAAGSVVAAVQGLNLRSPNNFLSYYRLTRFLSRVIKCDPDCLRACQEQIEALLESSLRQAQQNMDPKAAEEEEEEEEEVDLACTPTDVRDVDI
CDK6/Cyclin D1, sequence (Q00534 whole entry): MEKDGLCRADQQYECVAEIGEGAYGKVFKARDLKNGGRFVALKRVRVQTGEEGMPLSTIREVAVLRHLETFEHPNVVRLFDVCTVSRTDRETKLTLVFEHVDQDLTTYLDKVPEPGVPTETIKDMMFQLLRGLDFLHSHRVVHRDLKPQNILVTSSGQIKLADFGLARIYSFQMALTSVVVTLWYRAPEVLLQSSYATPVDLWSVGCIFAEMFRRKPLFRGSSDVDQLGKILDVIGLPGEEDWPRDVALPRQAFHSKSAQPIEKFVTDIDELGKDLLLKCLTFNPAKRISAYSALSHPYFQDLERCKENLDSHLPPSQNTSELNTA
CDK6/Cyclin D1, sequence (P24385 whole entry partner): as the sequence (P24385 whole entry partner) above

In general, Kp refers to tissue or fluid exposure divided by exposure in the circulation. Consider `Cc1c(-c2nc(Nc3ccc(N4CCC5(CCN(C)C5)C4)cn3)ncc2F)sc2c1C(=O)N(C)CC21CCC1` (centres unmarked) [Example 55, 2′-(5-Fluoro-2-((5-(7-methyl-2,7-diazaspiro[4.4]nonan-2-yl)pyridin-2-yl)amino)pyrimidin-4-yl)-3′,5′-dimethyl-5′,6′-dihydro-4′H-spiro[cyclobutane-1,7′-thieno[3,2-c]pyridin]-4′-one], for which the IC50 in series [1] was at most 20 nM; in series [2] it was at most 20 nM; in series [3], 20 to 200 nM. The partition ratio (Kp) at 4 h in series [4] was under 1.
As to `Cc1cnc(Nc2ccc(C3CCN(C)CC3)cn2)nc1-c1cc2c(s1)C1(CCC1)CN(C)C2=O` [Example 59, 5-Methyl-2-[5-methyl-2-[[5-(1-methylpiperidin-4-yl)pyridin-2-yl]amino]pyrimidin-4-yl]spiro[6H-thieno[3,2-c]pyridine-7,1′-cyclobutane]-4-one], the IC50 in series [1], in series [2] and in series [3] was at most 20 nM throughout. Further, the Kp at 4 h in series [4] fell in the range of 1 to 3.
In the case of `Cc1c(-c2nc(Nc3ccc(C4CCN(C)CC4)cn3)ncc2F)sc2c1C(=O)N(C)CC21CCCC1` [Example 63, 2′-(5-Fluoro-2-((5-(1-methyl-piperidin-4-yl)pyridin-2-yl)amino)pyrimidin-4-yl)-3′,5′-dimethyl-5′,6′-dihydro-4′H-spiro[cyclopentane-1,7′-thieno[3,2-c]pyridin]-4′-one], the IC50 is at most 20 nM in series [1], at most 20 nM in series [2] and 20 to 200 nM in series [3]. Besides, the Kp at 4 h in series [4] is at least 3.
For the molecule `CCN1CC2(C1)CN(c1ccc(Nc3ncc(F)c(-c4ccc5c(c4)C4(CCCC4)CN(C)C5=O)n3)nc1)C2` [Example 66, 6′-(2-((5-(6-Ethyl-2,6-diazaspiro[3.3]heptan-2-yl)pyridin-2-yl)amino)-5-fluoropyrimidin-4-yl)-2′-methyl-2′,3′-dihydro-1′H-spiro[cyclopentane-1,4′-isoquinolin]-1′-one], the IC50 was at most 20 nM in series [1], 20 to 200 nM in series [2] and 20 to 200 nM in series [3]. For the same molecule, the Kp at 4 h in series [4] lay in the range of 1 to 3.
For the molecule `CN1CCC(c2ccc(Nc3ncc(F)c(-c4ccc5c(c4)C4(CCCC4)CN(C)C5=O)n3)nc2)CC1` [Example 67, 6′-(5-Fluoro-2-((5-(1-methyl-piperidin-4-yl)pyridin-2-yl)amino)pyrimidin-4-yl)-2′-methyl-2′,3′-dihydro-1′H-spiro[cyclopentane-1,4′-isoquinolin]-1′-one], the IC50 in series [1] was at most 20 nM; in series [2], 20 to 200 nM; in series [3], 20 to 200 nM. Also, the Kp at 4 h in series [4] is at least 3.
As to `CCN1CCC(c2ccc(Nc3ncc(F)c(-c4sc5c(c4C)C(=O)N(C)C54CC4)n3)nc2)C1` (centres unmarked) [Example 71, 2′-[2-[[5-(1-Ethylpyrrolidin-3-yl)pyridin-2-yl]amino]-5-fluoropyrimidin-4-yl]-3′,5′-dimethylspiro[cyclopropane-1,6′-thieno[2,3-c]pyrrole]-4′-one], the figures for the IC50 in series [1], in series [2] and in series [3] were at most 20 nM, at most 20 nM and 20 to 200 nM, respectively. Besides, the Kp at 4 h in series [4] lay in the range of 1 to 3.
For the molecule `CCN1CC2(C1)CN(c1ccc(Nc3ncc(F)c(-c4ccc5c(c4)C4(CCCC4)N(C)C5=O)n3)nc1)C2` [Example 78, 6′-(2-((5-(6-Ethyl-2,6-diazaspiro[3.3]heptan-2-yl)pyridin-2-yl)amino)-5-fluoropyrimidin-4-yl)-2′-methylspiro[cyclopentane-1,1′-isoindolin]-3′-one], the IC50 is at most 20 nM in series [1], 20 to 200 nM in series [2] and 20 to 200 nM in series [3]. The concentration ratio (Kp) at 4 h in series [4] was in the range of 1 to 3.
Consider `CCN1CC2(CC(c3ccc(Nc4ncc(F)c(-c5sc6c(c5C)C(=O)N(C)C65CC5)n4)nc3)C2)C1` [Example 81, 2′-(2-((5-(2-Ethyl-2-azaspiro[3.3]heptan-6-yl)pyridin-2-yl)amino)-5-fluoropyrimidin-4-yl)-3′,5′-dimethylspiro[cyclopropane-1,6′-thieno[2,3-c]pyrrol]-4′(5′H)-one], for which the IC50 in series [1], in series [2] and in series [3] was at most 20 nM each time. Moreover, in series [4], the partition ratio (Kp) at 4 h was under 1.
